{"source": "patent US20060270670A1", "about": "“Methods of synthesizing 6-alkylaminoquinoline derivatives” (priority 2005, published 2006)", "key": {"3T3": {"test_system": "3T3", "test": "Cell proliferation assay (SRB), 3T3", "format": "cell-based", "conditions": "Mus musculus, NIH3T3, 48 h, read-out: IC50 cell proliferation 3T3"}, "[1]": {"test_system": "SW620 colon carcinoma cells", "test": "Cell proliferation assay (SRB), SW620", "format": "cell-based", "conditions": "Homo sapiens, SW-620, 48 h, read-out: IC50 cell proliferation SW620"}, "BT474 xenografts": {"test_system": "BT474 xenografts", "test": "Effect on tumor xenografts, BT474", "format": "in vivo, Mice", "conditions": "for maximum tumor inhibition: day 21; for effect on BT474 xenografts: 10-40 mg/kg/day", "description": "In animals bearing BT474 xenografts, treatment of animals with (E)N-{4-[3-chloro-4-(2-pyridinylmethoxy)anilino]-3-cyano-7-ethoxy-6-quinolinyl}-4-(methylamino)-2-butenamide had no effect at 10-40 mg/kg/day, as shown in Table 4."}, "BT474": {"test_system": "BT474", "test": "Cell proliferation assay (SRB), BT474", "format": "cell-based", "conditions": "Homo sapiens, BT-474, 144 h, read-out: IC50 cell proliferation BT474"}, "3T3/neu": {"test_system": "3T3/neu", "test": "Cell proliferation assay (SRB), 3T3/neu", "format": "cell-based, mouse", "conditions": "for IC50: Mus musculus, 48 h, read-out: IC50 cell proliferation 3T3/neu"}, "3T3/neu xenografts": {"test_system": "3T3/neu xenografts", "test": "Effect on tumor xenografts, 3T3/neu", "format": "in vivo, Mice"}, "SK-Br-3": {"test_system": "SK-Br-3", "test": "Cell proliferation assay (SRB), SK-Br-3", "format": "cell-based", "conditions": "Homo sapiens, read-out: IC50 cell proliferation SK-Br-3"}, "HER-2": {"molecular_target": "T1, HER-2 (Homo sapiens, UniProt P04626)", "T1 construct": "purchased ProQinase, Freiburg, Germany", "T1 sequence (P04626 23-1255)": "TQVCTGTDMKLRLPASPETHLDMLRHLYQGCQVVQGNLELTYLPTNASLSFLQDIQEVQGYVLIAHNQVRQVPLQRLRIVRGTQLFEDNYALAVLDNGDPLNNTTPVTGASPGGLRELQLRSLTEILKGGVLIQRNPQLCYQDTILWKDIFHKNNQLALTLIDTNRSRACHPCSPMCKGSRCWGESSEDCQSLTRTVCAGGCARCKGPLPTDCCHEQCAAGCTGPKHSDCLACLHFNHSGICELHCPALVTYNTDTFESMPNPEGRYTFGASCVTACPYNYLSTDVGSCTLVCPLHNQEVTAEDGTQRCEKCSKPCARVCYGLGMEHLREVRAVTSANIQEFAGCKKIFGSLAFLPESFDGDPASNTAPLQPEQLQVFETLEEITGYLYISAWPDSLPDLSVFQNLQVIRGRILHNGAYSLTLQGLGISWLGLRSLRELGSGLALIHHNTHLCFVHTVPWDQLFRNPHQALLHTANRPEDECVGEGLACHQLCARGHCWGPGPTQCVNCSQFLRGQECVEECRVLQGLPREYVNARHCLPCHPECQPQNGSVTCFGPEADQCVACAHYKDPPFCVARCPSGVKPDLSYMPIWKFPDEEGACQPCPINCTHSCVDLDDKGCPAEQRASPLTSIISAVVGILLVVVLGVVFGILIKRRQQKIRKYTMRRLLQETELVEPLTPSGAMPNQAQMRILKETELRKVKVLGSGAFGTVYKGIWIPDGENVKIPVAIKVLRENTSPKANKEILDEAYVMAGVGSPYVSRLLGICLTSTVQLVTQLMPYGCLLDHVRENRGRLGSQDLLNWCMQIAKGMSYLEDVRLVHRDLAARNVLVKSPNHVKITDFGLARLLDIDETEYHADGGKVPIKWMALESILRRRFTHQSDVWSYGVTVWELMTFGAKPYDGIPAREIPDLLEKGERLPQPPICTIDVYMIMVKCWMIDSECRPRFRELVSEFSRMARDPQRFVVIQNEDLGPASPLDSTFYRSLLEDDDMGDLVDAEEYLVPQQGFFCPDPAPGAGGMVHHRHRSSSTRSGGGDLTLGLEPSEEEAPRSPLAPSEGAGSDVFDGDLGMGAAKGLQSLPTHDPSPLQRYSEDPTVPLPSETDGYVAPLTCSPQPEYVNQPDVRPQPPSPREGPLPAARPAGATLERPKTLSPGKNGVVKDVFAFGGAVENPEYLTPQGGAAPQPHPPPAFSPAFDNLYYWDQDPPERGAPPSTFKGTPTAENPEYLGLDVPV", "test": "ErbB substrate phosphorylation assay (33PanQinase assay), HER-2", "format": "biochemical", "conditions": "peptide substrate phosphorylation, [γ33P]-ATP", "description": "(§1) Here, the ability of the compound to inhibit phosphorylation of a substrate peptide [poly(Glu-Tyr) or poly(Ala-Glu-Lys-Tyr)] was determined."}, "EGFR": {"molecular_target": "T2, EGFR (Homo sapiens, UniProt P00533)", "T2 construct": "purchased ProQinase, Freiburg, Germany", "T2 sequence (P00533 25-1210)": "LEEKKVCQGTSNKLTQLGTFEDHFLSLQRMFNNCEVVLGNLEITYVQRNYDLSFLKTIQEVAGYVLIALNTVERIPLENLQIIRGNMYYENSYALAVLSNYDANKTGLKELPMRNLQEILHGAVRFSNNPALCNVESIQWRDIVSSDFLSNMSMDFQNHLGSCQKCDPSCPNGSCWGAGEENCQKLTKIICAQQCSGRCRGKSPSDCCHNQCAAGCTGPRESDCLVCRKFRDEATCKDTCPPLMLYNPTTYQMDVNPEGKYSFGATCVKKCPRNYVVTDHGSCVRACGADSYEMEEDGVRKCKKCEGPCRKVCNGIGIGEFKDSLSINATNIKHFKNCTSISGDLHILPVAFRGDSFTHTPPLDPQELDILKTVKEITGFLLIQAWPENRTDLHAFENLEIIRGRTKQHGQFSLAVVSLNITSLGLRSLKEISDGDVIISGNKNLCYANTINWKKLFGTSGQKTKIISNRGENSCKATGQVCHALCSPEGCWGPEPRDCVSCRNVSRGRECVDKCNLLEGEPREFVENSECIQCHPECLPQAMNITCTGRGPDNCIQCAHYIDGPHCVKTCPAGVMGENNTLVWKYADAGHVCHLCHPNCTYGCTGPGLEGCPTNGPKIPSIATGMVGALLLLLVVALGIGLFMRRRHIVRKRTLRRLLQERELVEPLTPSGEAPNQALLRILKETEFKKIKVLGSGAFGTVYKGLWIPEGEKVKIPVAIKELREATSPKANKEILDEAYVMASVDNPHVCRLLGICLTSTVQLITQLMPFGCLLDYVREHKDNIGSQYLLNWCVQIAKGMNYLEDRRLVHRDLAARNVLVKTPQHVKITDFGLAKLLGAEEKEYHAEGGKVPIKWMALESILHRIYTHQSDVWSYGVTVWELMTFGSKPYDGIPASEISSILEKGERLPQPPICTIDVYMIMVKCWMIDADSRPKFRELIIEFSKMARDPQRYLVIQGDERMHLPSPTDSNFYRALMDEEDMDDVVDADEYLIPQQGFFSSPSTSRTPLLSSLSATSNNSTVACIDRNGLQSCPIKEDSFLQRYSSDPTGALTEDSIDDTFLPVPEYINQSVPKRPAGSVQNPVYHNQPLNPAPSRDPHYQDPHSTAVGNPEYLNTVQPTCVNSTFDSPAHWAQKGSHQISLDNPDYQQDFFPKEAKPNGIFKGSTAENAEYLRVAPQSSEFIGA", "test": "ErbB substrate phosphorylation assay (33PanQinase assay), EGFR", "format": "biochemical", "conditions": "peptide substrate phosphorylation, [γ33P]-ATP", "description": "as §1"}, "[2]": {"molecular_target": "T3, cytoplasmic kinase domain of HER-2 (Homo sapiens, UniProt P04626)", "T3 construct": "Purified recombinant C-terminal fragment of HER-2 was incubated with ATP", "T3 sequence (P04626 676-1255 limits assumed)": "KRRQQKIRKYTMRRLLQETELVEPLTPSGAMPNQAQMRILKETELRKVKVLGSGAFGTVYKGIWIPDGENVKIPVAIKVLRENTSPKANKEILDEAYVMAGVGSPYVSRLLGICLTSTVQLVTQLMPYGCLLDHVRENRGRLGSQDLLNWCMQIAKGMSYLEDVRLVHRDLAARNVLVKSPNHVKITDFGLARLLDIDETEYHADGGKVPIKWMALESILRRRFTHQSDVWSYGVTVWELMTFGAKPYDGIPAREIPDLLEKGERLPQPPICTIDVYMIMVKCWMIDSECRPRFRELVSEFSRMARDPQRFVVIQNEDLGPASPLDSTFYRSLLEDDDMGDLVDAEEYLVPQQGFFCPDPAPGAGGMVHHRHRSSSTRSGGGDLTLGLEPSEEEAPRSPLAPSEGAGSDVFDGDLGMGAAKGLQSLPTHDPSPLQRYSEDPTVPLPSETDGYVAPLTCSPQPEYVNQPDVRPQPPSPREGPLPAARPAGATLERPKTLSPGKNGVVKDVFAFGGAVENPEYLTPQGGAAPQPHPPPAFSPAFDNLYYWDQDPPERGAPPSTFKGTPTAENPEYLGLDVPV", "test": "HER-2 autophosphorylation assay", "format": "biochemical", "conditions": "purified recombinant C-terminal fragment of HER-2 with ATP; phosphotyrosine antibodies; mean and SE (n)"}, "HER-4": {"molecular_target": "T4, HER-4 (Homo sapiens, UniProt Q15303)", "T4 construct": "purchased ProQinase, Freiburg, Germany", "T4 sequence (Q15303 26-1308)": "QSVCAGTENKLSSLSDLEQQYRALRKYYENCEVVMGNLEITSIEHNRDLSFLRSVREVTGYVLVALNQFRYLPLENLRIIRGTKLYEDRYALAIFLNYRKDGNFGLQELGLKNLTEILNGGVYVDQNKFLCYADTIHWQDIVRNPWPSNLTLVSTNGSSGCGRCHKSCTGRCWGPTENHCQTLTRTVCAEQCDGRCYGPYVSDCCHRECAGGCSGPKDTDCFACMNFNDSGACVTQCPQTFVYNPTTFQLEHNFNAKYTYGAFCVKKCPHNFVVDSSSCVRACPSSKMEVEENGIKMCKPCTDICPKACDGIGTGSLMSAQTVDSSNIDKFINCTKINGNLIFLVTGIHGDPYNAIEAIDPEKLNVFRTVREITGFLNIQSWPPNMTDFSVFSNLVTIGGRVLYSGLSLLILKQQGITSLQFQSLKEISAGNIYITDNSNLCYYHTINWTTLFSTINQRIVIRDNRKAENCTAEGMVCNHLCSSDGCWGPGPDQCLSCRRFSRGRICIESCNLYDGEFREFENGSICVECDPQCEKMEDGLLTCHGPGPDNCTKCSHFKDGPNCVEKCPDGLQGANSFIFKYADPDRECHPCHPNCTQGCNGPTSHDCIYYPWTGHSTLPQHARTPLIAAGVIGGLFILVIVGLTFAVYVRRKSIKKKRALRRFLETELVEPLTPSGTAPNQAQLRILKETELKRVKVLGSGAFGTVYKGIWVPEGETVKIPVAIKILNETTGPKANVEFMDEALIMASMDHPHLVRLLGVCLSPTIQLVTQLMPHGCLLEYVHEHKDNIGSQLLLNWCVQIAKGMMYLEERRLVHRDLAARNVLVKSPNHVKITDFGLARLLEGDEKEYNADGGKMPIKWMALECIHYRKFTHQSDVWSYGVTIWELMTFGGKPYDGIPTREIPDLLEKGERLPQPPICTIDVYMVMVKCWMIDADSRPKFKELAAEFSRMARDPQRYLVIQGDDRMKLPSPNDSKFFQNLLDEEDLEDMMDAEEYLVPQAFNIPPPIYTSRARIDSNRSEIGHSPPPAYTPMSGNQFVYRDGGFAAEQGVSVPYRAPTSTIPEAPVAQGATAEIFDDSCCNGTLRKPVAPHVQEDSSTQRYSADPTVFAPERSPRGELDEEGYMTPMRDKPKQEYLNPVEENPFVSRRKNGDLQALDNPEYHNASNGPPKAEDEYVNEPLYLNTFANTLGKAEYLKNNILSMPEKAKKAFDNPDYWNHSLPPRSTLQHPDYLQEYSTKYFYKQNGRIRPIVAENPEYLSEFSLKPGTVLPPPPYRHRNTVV", "test": "ErbB substrate phosphorylation assay (33PanQinase assay), HER-4", "format": "biochemical", "conditions": "peptide substrate phosphorylation, [γ33P]-ATP", "description": "as §1"}, "A431": {"test_system": "A431", "test": "Cell proliferation assay (SRB), A431", "format": "cell-based", "conditions": "Homo sapiens, A-431, 48 h, A431, 2 days, mean and SE (n)"}}, "note": "Read-outs that look alike come from different tables or passages of the source."}
{"molecule": "CCOc1cc2ncc(C#N)c(Nc3ccc(OCc4ccccn4)c(Cl)c3)c2cc1NC(=O)/C=C/CN(C)C", "note": "[Dimethylamino, (E)N-{4-[3-Chloro-4-(2-pyridinylmethoxy)anilino]-3-cyano-7-ethoxy-6-quinolinyl}-4-(dimethylamino)-2-butenamide, reference compound]", "values": [{"measurement": "IC50", "setting": "3T3", "value": "2.19 ± 0.7", "unit": "µM"}, {"measurement": "IC50", "setting": "[1]", "value": "1.22 ± 0.246", "unit": "µM"}, {"measurement": "maximum tumor inhibition", "setting": "BT474 xenografts; 10 mg/kg/day", "value": 64, "unit": "%"}, {"measurement": "maximum tumor inhibition", "setting": "BT474 xenografts; 40 mg/kg/day", "value": 97, "unit": "%"}, {"measurement": "effect on BT474 xenografts", "setting": "BT474 xenografts", "value": "good antitumor activity"}, {"measurement": "IC50", "setting": "BT474", "value": "0.002 ± 0.0002", "unit": "µM"}, {"measurement": "IC50", "setting": "3T3/neu", "value": "0.005 ± 0.0002", "unit": "µM"}, {"measurement": "tumor growth inhibition", "setting": "3T3/neu xenografts; first test, 40 mg/kg/day, day 18 (data not shown)", "value": 74, "unit": "%"}, {"measurement": "tumor growth inhibition", "setting": "3T3/neu xenografts; second independent test, between 40 and 80 mg/kg/day, day 14", "value": "93-100%"}, {"measurement": "IC50", "setting": "SK-Br-3; SK-BR-3, 48 h", "value": "0.036 ± 0.02", "unit": "µM"}]}
{"molecule": "CCOc1cc2ncc(C#N)c(Nc3ccc(OCc4ccccn4)c(Cl)c3)c2cc1NC(=O)/C=C/CNC", "note": "[Example 6, (E)N-{4-[3-Chloro-4-(2-pyridinylmethoxy)anilino]-3-cyano-7-ethoxy-6-quinolinyl}-4-(methylamino)-2-butenamide]", "values": [{"measurement": "IC50", "setting": "3T3; 3T3 untransfected cells, 2 days, SRB, mean and SE (n)", "value": 5.46, "unit": "µM"}, {"measurement": "IC50", "setting": "HER-2", "value": 0.021, "unit": "µM"}, {"measurement": "IC50", "setting": "[1]; SW620, 2 days, SRB, mean and SE (n)", "value": 1.6, "unit": "µM"}, {"measurement": "IC50", "setting": "EGFR", "value": 0.007, "unit": "µM"}, {"measurement": "IC50", "setting": "[2]", "value": 0.0034, "unit": "µM"}, {"measurement": "effect on BT474 xenografts", "setting": "BT474 xenografts", "value": "no effect"}, {"measurement": "IC50", "setting": "BT474; BT474, 6 days, SRB, mean and SE (n)", "value": 0.003, "unit": "µM"}, {"measurement": "fold less potent than the dimethylamino compound", "setting": "3T3/neu; 3T3/neu cells", "value": 8, "unit": "fold"}, {"measurement": "IC50", "setting": "3T3/neu; 3T3/neu, 2 days, SRB, mean and SE (n)", "value": 0.04, "unit": "µM"}, {"measurement": "effect on tumor growth", "setting": "3T3/neu xenografts; first test, daily oral, between 5 and 40 mg/kg/day", "value": "no effect on tumor growth"}, {"measurement": "effect on tumor growth", "setting": "3T3/neu xenografts; second independent test, 100 mg/kg/day", "value": "no effect on tumor growth"}, {"measurement": "IC50", "setting": "HER-4", "value": 0.013, "unit": "µM"}, {"measurement": "IC50", "setting": "SK-Br-3; 48 h, SK-Br-3, 2 days, SRB, mean and SE (n)", "value": 0.034, "unit": "µM"}, {"measurement": "IC50", "setting": "A431", "value": 0.067, "unit": "µM"}]}
{"molecule": "CCOc1cc2ncc(C#N)c(Nc3ccc(F)c(Cl)c3)c2cc1NC(=O)/C=C/CNCC(=O)OC(C)(C)C", "note": "[Example 2, (E)N-{4-[3-chloro-4-fluoroanilino]-3-cyano-7-ethoxy-6-quinolinyl}-4-[N-(t-butyloxycarbonyl)methylamino]-2-butenamide]", "values": [{"measurement": "melting point", "value": "106.5 to 108", "unit": "°C"}]}
